The values that follow are results of earlier work, collected in US20200319065A1, “STABLE DITHIZONE SOLUTIONS AND FORMULATIONS AND METHODS FOR THEIR USE” (CITY OF HOPE, priority 2019, published 2020).

SMILES strings stand for the structures.

For the compound `S=C(N=Nc1ccccc1)NNc1ccccc1` [DTZ, Dithizone], the “solubility in organic solvents” value (ethanol, chloroform and DMSO) is on record as “solubilizes partially”. Where the note is “water”, the solubility in water result is on record as “relatively insoluble”.
